# Source: patent publication US5872115A, “2-ureido-benzamide derivatives” (Grelan Pharmaceutical Co. Ltd., priority 1995, dated 1999)
# How the values were obtained:
# [1] = molecular target: T1, ACAT of THP-1 cells (Homo sapiens, UniProt P35610); assay: In-vitro test using THP-1 intact cell (ACAT inhibition); assay type: cell-based; settings: read-out: IC50 THP1 (intact cell)
# T1 construct: differentiated into macrophage-like cells by phorbol ester; endogenous in cells; host or cells: THP-1 (human leukemia), intact cells differentiated by phorbol ester
# T1 sequence (P35610 1-550): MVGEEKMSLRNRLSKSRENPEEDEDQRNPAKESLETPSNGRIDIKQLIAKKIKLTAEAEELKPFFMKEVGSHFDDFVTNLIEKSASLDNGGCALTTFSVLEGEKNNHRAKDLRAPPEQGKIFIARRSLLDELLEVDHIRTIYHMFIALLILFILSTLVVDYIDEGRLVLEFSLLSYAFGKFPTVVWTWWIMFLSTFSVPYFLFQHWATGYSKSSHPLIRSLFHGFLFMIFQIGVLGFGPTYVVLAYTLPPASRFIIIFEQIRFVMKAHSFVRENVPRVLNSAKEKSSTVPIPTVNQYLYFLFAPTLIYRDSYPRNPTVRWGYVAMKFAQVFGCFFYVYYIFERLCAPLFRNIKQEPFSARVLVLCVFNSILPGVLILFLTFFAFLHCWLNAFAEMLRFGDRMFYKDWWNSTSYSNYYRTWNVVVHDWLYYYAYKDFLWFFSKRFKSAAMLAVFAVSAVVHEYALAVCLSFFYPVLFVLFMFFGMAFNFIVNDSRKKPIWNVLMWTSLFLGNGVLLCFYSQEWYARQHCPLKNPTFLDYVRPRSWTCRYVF
# Description: (2) In-vitro Test Using THP-1 Intact Cell
# About 2 million cells of human leukemia cell line, THP-1 were seeded in a well with 2 ml of medium and differentiated into macrophage-like cells by phorbol ester. Then, the cells were washed with phosphate-buffered saline (PBS) solution and the medium was replaced by fresh medium supplemented with 10% of lipoprotein-deficient serum. After the addition of each test compound dissolved in dimethyl sulfoxide and 100 μg protein-containing human low density lipoprotein (LDL), the reaction was initiated by the addition of 10 nmoles of labeled [^14 C]oleic acid and 10 nmoles of oleic acid complexed with BSA in PBS solution. After 22 hours, the reaction was stopped by removal the medium and CHCl3 -MeOH (2:1) were added to the cell suspension in order to extract lipids.
# Intracellular [^14 C] cholesterol-oleate formed was separated by thin-layer chromatography and the radioactivity was counted with lipid scintillation counter.
# (§1) ACAT inhibitory activities of the test compounds were shown as IC50 values.
# [2] = system: ACAT of macrophage; assay: In-vivo test using mouse peritoneal macrophages (ACAT inhibition); settings: male mice, compound in diet for 16 days
# Description: (3) In-vivo Test Using Mouse Peritoneal Macrophages
# Male mice were fed a standard powder diet containing the test compounds for 16 days. After 14 and 15 days on this diet, aggregated-LDL (containing 4 mg cholesterol) prepared from LDL receptor deficient KHC rabbit and [^14 C] oleic acid together with the said aggregated-LDL (containing 0.5 mg cholesterol) were injected into the peritoneal cavity of these animals, respectively. After 16 days on this treatment, peritoneal macrophages were harvested by peritoneal lavage with PBS solution and CHCl3 -MeOH (2:1) were added to the cell suspension in order to extract lipids. Formed [^14 C] cholesterol oleate was separated by thin-layer chromatography and the radioactivity was counted.
# ACAT inhibitory activities of the test compounds were shown as inhibiting percentage referred to control group.
# [3] = system: ACAT of HepG2 microsome; assay: In-vitro test using Hep G2 microsome (ACAT inhibition); assay type: biochemical, human
# Description: (1) In-vitro Test Using Hep G2 Microsome
# ACAT enzyme fraction was prepared from microsome of human derived hepatoma Hep G2 cell according to Sandra's method [Journal of Lipid Research, 27, 875 (1986)].
# Microsome was suspended at a concentration of 200 μg protein/20 μl in 0.1M phosphate buffer solution (pH7.4) and the suspension was preincubated at 37° C. for 5 minutes after addition of 10 μl of each test compound dissolved in 0.1M phosphate buffer solution containing bovine serum albmin (BSA). Then, the reaction was initiated by the addition of 5 nmoles of labeled [^14 C]-oleoyl-CoA dissolved in 20 μl of the said phosphate buffer solution containing BSA and the reaction was stopped by the addition of 20 μl of 2N HCl after 10 minutes. [^14 C] cholesterol-oleate formed was separated by thin-layer chromatography and the radioactivity was counted with liquid scintillation counter.
# as §1
# [4] = Acute toxicity, male ICR strain mouse; assay type: in vivo; settings: 1000 mg/kg orally, seven days after administration
# Description: (1) Acute toxicity: Nine compounds (Example Nos. 1, 2, 5, 6, 12, 19, 28, 31 and 45) were tested by using male ICR strain mouse weighing 23.0±0.7 g.
# [5] = system: ACAT of macrophages; assay: In vivo test using peritoneal macrophages in C57BL/6J mice (ACAT inhibition); set-up: species or system mouse; settings: Experiment 1; female C57BL/6J mice, 30 mg/kg/day per os for 4 days
# Description: (6) In Vivo Test Using Peritoneal Macrophages in C57BL/6J Mice
# A standard pellet diet fed female C57BL/6J mice were administered at 10 a.m. per os 30 mg/kg/day of oral suspension (1% CMC-Na 0.2% Tween 80) for 4 days. Thioglycollate and [^14 C] cholesterol were injected […], mice were sacrificed for the collection of peritoneal macrophages. Lipid was extracted, formed [^14 C] cholesterol-ester was separated by thin-layer chromatography and radioactivity was counted as described above in method (3).
# In vivo ACAT inhibitory activities on macrophages were expressed as percentage of inhibition compared to control group.
SMILES,IC50 [1] [nM],Inhibition rate (macrophages) [2] [%],IC50 [3] [nM],macroscopic changes on any organs at autopsy [4],Inhibition rate (macrophages) [5] [%]
"CCCCCCCNC(=O)Nc1ccc(N(C)C)cc1C(=O)NCC1CCN(C(c2ccccc2)c2ccccc2)CC1 [Example 1, 2-(N'-n-Heptylureido)-5-dimethylamino-N-[(1-diphenylmethylpiperidin-4-yl)methyl]-benzamide]",70,65,600,no macroscopic changes were observed,81.0
"CCCCCCCNC(=O)Nc1ccccc1C(=O)NCC1CCN(C(c2ccccc2)c2ccccc2)CC1 [Example 5, 2-(N'-n-Heptylureido)-N-[(1-diphenylmethylpiperidin-4-yl)methyl]benzamide]",70,64,1600,no macroscopic changes were observed,–
